Measurements taken from patent US5219839A, “Adenosine derivatives, their methods of preparation and pharmaceutical compositions in which they are present” (Laboratories UPSA, priority 1992, dated 1993).

Experiments:
A1 receptors = target: T1, A1 receptors (Rattus norvegicus, UniProt P25099); test: Binding to adenosine A1 receptors: competitive displacement of [^3 H] PIA, rat brain membranes; settings: [^3 H] PIA 2.5 nM, n=3; for inhibition at 10 µM: 10^-5 M, read-out: % displacement of the labeled ligand, A1, 1E-5M; for % displacement of the labeled ligand, A1, 1E-7M: 10^-7 M, 0.1 µM
T1 construct: the brain is quickly removed and washed in cold isotonic solution; from tissue; host or cells: rat brain hemispheres (membrane homogenate)
T1 sequence (P25099 1-326): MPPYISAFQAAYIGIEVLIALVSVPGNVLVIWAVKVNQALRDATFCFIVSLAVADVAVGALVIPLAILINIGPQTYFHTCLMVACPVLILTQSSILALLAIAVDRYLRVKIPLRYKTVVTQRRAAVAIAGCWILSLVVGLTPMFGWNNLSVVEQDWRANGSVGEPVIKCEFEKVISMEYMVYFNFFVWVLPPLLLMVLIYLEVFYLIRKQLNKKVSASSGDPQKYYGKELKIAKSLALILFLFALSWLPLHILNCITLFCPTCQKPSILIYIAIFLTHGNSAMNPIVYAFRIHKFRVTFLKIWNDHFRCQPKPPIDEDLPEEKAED
Procedure: (§1) The affinity of the products of the Examples for the rat central A1 and A2 adenosinergic receptors is determined by the competitive technique using a radioactive ligand specifically bound either to the A1 receptors ([^3 H] PIA) or to the A2 receptors ([^3 H] NECA).
After the animal has been sacrificed by decapitation, the brain is quickly removed and washed in cold isotonic solution. The two hemispheres are separated and weighed and each of them is introduced into a polyallomer tube containing 25 volumes of cold homogenization buffer. Homogenization is effected using an Ultra-Turrax for 30 seconds (3 times 10 seconds with 10-second intervals, 70% of the maximum speed). The ground material obtained is centrifuged at 1000 g (≈3000 rpm) for 10 minutes at 4° C.
The supernatant is centrifuged again at 48,000 g (≈20,000 rpm) for 20 minutes at 4° C.
When this step is complete, the residue is taken up with 4 volumes of homogenization buffer, resuspended using a Vortex and homogenized with the Ultra-Turrax. Adenosine deaminase is then added at a rate of 1 U/ml, i.e. 1 μl/ml of homogenate, using a 10 μl Hamilton syringe.
After this treatment, the homogenate is shaken for 30 minutes at room temperature and then centrifuged at […] (≈20,000 rpm) for 30 minutes at 4° C.
The residue obtained is resuspended in 10 volumes of homogenization buffer and passed through the Ultra-Turrax for 20 seconds (2 times 10 seconds with a 10-second interval, 70% of the maximum speed).
The homogenate prepared in this way is used for the competitive tests. It is kept at 4° C. if the studies take place the same day, or stored at -20° C. in the form of 10 ml aliquots.
After the homogenate has been thawed at room temperature, it is passed through a Potter homogenizer (6 manual to-and-fro movements, speed 6), diluted to 2/5 in incubation buffer and placed in a water bath thermostated at 4° C., with shaking, until the end of the experiment.
(§2) 50 μl of [^3 H] PIA at 100 nM, i.e. 2.5 nM in the final reaction medium allowing for the 1/40 dilution, and 50 μl of the product of the Example at the concentrations considered (10^-5 M and 10^-7 M) are introduced into the reaction tubes. The reaction is initiated by the addition of 1 ml of homogenate and 900 μl of incubation buffer. The procedure is identical for all the beta-blockers studied.
(§3) The tubes are shaken and incubated in a water bath at 20° C. for 30 minutes. When the incubation is complete, the contents of the tubes are filtered on Whatman GF/B paper. Each tube is washed twice with 2 ml of rinsing buffer and then the filters themselves are rinsed with 3 ml of this same buffer.
The filters are then transferred to counting flasks and 10 ml of liquid scintillator (Ready Solv HP/b, Beckman) are added.
After they have been shaken, the flasks are stored in a refrigerator overnight and the radioactivity is then determined in a liquid scintillation counter.
(§4) 3 tests are performed for each concentration studied. The non-specific binding of the [^3 H] PIA is assessed by measuring the amount of radioactivity retained on the filter in the presence of 10^-5 M phenylisopropyladenosine (PIA). The value of the non-specific binding is systematically subtracted from that of the tests.
(§5) The results are expressed for each product in the form of the percentage displacement (n=3) of the labeled radioligand at concentrations of 10^-5 M and 10^-7 M.

A2 receptors = target: T2, A2 receptors (Rattus norvegicus, UniProt P30543); test: Binding to adenosine A2 receptors: competitive displacement of [^3 H] NECA, rat striatum membranes; settings: [^3 H] NECA 4 nM, n=3; for % displacement of the labeled ligand, A2, 1E-5M: 10 µM; for % displacement of the labeled ligand, A2, 1E-7M: 10^-7 M, 0.1 µM
T2 construct: The two hemispheres are separated and the striatum is removed from each of them (Bruns et al., 1986); from tissue; host or cells: rat striatum (membrane homogenate)
T2 sequence (P30543 whole entry): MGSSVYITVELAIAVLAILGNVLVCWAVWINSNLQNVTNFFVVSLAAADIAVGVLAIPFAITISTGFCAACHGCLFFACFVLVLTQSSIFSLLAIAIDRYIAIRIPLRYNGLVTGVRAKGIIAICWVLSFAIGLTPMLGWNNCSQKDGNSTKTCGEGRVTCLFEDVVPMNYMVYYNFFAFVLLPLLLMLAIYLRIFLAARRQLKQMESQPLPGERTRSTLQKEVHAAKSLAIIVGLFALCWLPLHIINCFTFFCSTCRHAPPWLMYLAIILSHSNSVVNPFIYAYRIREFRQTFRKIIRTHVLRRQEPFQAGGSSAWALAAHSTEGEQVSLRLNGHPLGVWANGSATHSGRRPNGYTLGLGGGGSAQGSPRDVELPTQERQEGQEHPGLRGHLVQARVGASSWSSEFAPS
Procedure: as §1
After decapitation of the animal, the brain is quickly removed and washed in cold isotonic solution. The two hemispheres are separated and the striatum is removed from each of them (Bruns et al., 1986), weighed and introduced into a polyallomer tube containing 10 volumes of cold homogenization buffer. The tissue is homogenized with an Ultra-Turrax for 30 seconds (3 times 10 seconds with 10-second intervals, 70% of the maximum speed). The ground material is centrifuged at 50,000 g (≈20,500 rpm) for 10 minutes at 4° C.
The residue obtained is resuspended in 10 volumes of homogenization buffer using a Vortex and homogenized with the Ultra-Turrax (5 to 10 seconds, 70% of the maximum speed).
Adenosine deaminase is then added at a rate of 1 U/ml, i.e. 1 μl/ml of homogenate, using a 10 μl Hamilton syringe. The homogenate treated in this way is shaken at room temperature for 30 minutes.
When the incubation is complete, the homogenate is centrifuged at 50,000 g (≈20,500 rpm) for 10 minutes at 4° C.
The residue is taken up with 5 volumes of cold homogenization buffer and passed through the Ultra-Turrax (2 times 10 seconds with a 10-second interval, 70% of the maximum speed) and the homogenate prepared in this way is finally frozen at -70° C.
After the homogenate has been thawed at room temperature, 15 volumes of incubation buffer are added. The homogenate is shaken on a Vortex, passed through a Potter homogenizer (6 to-and-fro movements, speed 6), diluted to 1/10 in incubation buffer and finally placed in a water bath thermostated at 4° C., with shaking, until the end of the experiment.
as §2, with “NECA” for “PIA”, “160” for “100”, “4” for “2.5”, “similar” for “identical”, “compounds” for “beta-blockers”
as §3, with “25°” for “20°”, “60” for “30”, “buffer before being transferred to counting flasks.” for “buffer.”
10 ml of liquid scintillator (Ready Solv HP/b, Beckman) are added to all the flasks. These are shaken and stored in a refrigerator overnight. The radioactivity is determined in a liquid scintillation counter.
as §4, with “NECA” for “PIA”, “determined” for “assessed”, “5 μM N-ethylcarboxamidoadenosine (NECA).” for “10^-5 M phenylisopropyladenosine (PIA).”
as §5

[1] = tested on: twisting and stretching movements in mice; test: Phenylbenzoquinone test (analgesic activity); assay type: in vivo; settings: p.o., one hour before phenylbenzoquinone i.p., 5 minutes observation
Procedure: The intraperitoneal injection of phenylbenzoquinone causes twisting and stretching movements in mice. Analgesics prevent or reduce this syndrome, which can be considered as the exteriorization of diffuse abdominal pain.
A 0.02% solution of phenylbenzoquinone in water is administered in a volume of 1 ml/100 g.
The products of the Examples are administered orally one hour before the injection of phenylbenzoquinone.
The stretching and twisting movements are counted for each mouse over an observation period of 5 minutes.

Row | inhibition at 10 µM (A1 receptors) | % displacement of the labeled ligand, A1, 1E-7M (A1 receptors) | % displacement of the labeled ligand, A2, 1E-5M (A2 receptors; 10^-5 M) | % displacement of the labeled ligand, A2, 1E-7M (A2 receptors) | inhibition at 10 µM (A2 receptors; 10^-5 M, read-out: % displacement of the labeled ligand, A2, 1E-5M) | Compound | Phenylbenzoquinone test 50% inhibitory dose [1]
1 | 90% | 10% | 100% | 19% | – | O=C(NC1CC1)[C@H]1O[C@@H](n2cnc3c(NCC4CC4(c4ccccc4)c4ccccc4)ncnc32)[C@H](O)[C@@H]1O (single isomer, unassigned) [Example 44, β-D-Ribofuranuronamido-N-cyclopropyl-1-deoxy-1-[6-[(-)-[[2,2-diphenylcyclopropyl]methyl]amino]-9H-purin-9-yl]] | ≈ 1 mg/kg
2 | 99% | 54% | – | 71% | 92% | CCNC(=O)[C@H]1O[C@@H](n2cnc3c(NCC4CC4(c4ccccc4)c4ccccc4)ncnc32)[C@H](O)[C@@H]1O (single isomer, unassigned) [Example 48, β-D-Ribofuranuronamido-N-ethyl-1-deoxy-1-[6-[(+)-[[2,2-diphenylcyclopropyl]methyl]amino]-9H-purin-9-yl]] | 0.3 mg/kg
3 | 93% | 15% | 86% | 0% | – | CCNC(=O)[C@H]1O[C@@H](n2cnc3c(NCC4CC4(c4ccccc4)c4ccccc4)ncnc32)[C@H](O)[C@@H]1O (single isomer, unassigned) [Example 49, β-D-Ribofuranuronamido-N-ethyl-1-deoxy-1-[6-[(-)-[[2,2-diphenylcyclopropyl]methyl]amino]-9H-purin-9-yl]] | 0.7 mg/kg
